Like-named read-outs stand apart in the source and are kept apart here.
Columns and labels:
dopamine-β-hydroxylase [1] = conditions: literature, cited from earlier work; for dopamine-β-hydroxylase inhibiting effects, in words / duration of dopamine-β-hydroxylase inhibiting effect, in words: known compounds
dopamine-β-hydroxylase [2] = assay: Noradrenaline and dopamine levels of the cerebrum (brain) in rats, % of controls; assay type: in vivo, male Wistar rats; conditions: rat, i.p., 400 mg/kg, time not given
Description: (§1) The dopamine-β-hydroxylase inhibiting effects of the new compounds according to the invention were examined by the following tests:
(§2) The tests were performed on male Wistar rats weighing 150 to 200 g. The dopamine-β-hydroxylase inhibiting effects of the compounds were evaluated by determining the change of noradrenaline, dopamine and adrenaline levels of the cerebrum, heart, spleen and adrenal gland. The serotonine and 5-hydroxy-indolylacetic acid levels of the cerebrum were also determined. The measurements were performed as follows:
(§3) The animals were decapitated, the cerebrum, heart, spleen and adrenal gland were removed quickly, and the organs were frozen by placing them on a metal sheet cooled with dry ice. The frozen organs were stored for a maximum of one night at -20° C.
(§4) The organs were weighed in the frozen state and then homogenized in 5.0 ml of 0.4 N perchloric acid containing 0.05% of EDTA-Naa and 0.1% of Na2 S2 O5. The homogenized mixtures were centrifuged as described above for the treatment of adrenal gland, the supernatants were decanted, and the pH was adjusted to 8.0±0.1 with a 0.1 molar tris buffer containing 20 g/l of NaOH and 25 g/l of EDTA-Na2. 100 mg of prepared Al2 O3 (Anton et al.: J. Pharm. Ther. 138, 360 (1962)) were added to the samples, and the mixtures were shaken mechanically for 20 minutes. Thereafter the Al2 O3 was washed with 2×10 ml of distilled water, and noradrenaline was eluted with 1.0 ml of 0.05 N perchloric acid. 0.5 ml samples of the eluate were used for the determination of noradrenaline. Noradrenaline was determined according to the method of Shellenberger et al. (Anal. Biochem. 39, 356 (1971)), with the following modifications of the basic procedure: 0.5 ml of 0.1 molar Na-K-phosphate buffer, containing 9 g/l of EDTA-Na2, were added to 0.5 ml of the eluate, and the catecholamines (noradrenaline in the examination of heart and spleen and noradrenaline and dopamine in the examination of the cerebrum) were oxidized with 0.1 ml of a 0.1 N iodine solution in 5% potassium iodide. After exactly 2 minutes, oxidation was stopped by adding 0.25 ml of a 2.5% sodium sulfite solution in 4.4 N aqueous sodium hydroxide to the mixture. 2 minutes after the introduction of the alkaline sulfite solution, 0.2 ml of concentrated acetic acid was added to the samples, whereupon the pH decreased to 4.4 to 4.5. Thereafter the samples were placed for 5 minutes in a drying oven heated to 100° C., and then the samples were cooled with ice water. The fluorescency of noradrenaline was measured with an OPTON spectrophotometer at wavelengths of 380 nm (excitation) and 490 nm (emission).
The brains were homogenized in 10 parts by volume of 0.4 N perchloric acid. The homogenized mixture was stored at -20° C. overnight; thereafter it was thawed and centrifuged as described above. A sample of the homogenized mixture corresponding to 0.5 g of brain was removed, the pH of the sample was adjusted to 8.0±0.1 with 0.1 molar tris-buffer of the above composition, and the sample was processed as described above for the determination of the noradrenaline content of heart and spleen, with the difference that 1.5 ml of 0.05 N perchloric acid was used as the eluting agent. 0.5 ml of the eluate was used to determine the noradrenaline and dopamine contents. The measurement was performed as described above, with the difference that samples of 0.5 ml were applied for the recording of the flourescence of noradrenaline. The residue was placed for 50 minutes into a drying oven heated to 100° C., thereafter the sample was cooled with ice water, and the fluorescence of dopamine was recorded at wavelengths of 325 nm (excitation) and 380 nm (emission).
In a further test series the serotonine and 5-hydroxy-indolylacetic acid contents were also determined, in addition to the determination of the noradrenaline and dopamine content, from the same sample. […]

[3] = system: serotonine and 5-hydroxy-indolylacetic acid levels of the cerebrum; assay: Serotonine and 5-hydroxy-indolylacetic acid levels of the cerebrum (brain) in rats, % of controls; assay type: in vivo, male Wistar rats; conditions: rat; for response vs control in vivo at 50 mg/kg / response vs control in vivo at 200 mg/kg / response vs control in vivo at 100 mg/kg: ip, i.p.; for response vs control in vivo at 500 mg/kg: po, p.o.
Description: as §2, §3
In a further test series the serotonine and 5-hydroxy-indolylacetic acid contents were also determined, in addition to the determination of the noradrenaline and dopamine content, from the same sample. In this instance the brains were homogenized in 10 ml of 75% ethanol, 0.2 ml of EDTA-Na2 and 5% of ascorbic acid were added to the homogenized mixtures, and the homogenized mixtures were maintained at -20° C. overnight. The mixtures were centrifuged as described above, and 5.0 ml samples of the supernatant were removed. The samples were diluted with equal volumes of distilled water, and poured onto ion exchange columns of 0.5×1.5 cm dimensions, filled with buffered Amberlite CG-30 (200 to 400 mesh). The columns were washed with 5 ml of distilled water followed by 1.0 ml of 0.2 N hydrochloric acid, and the first effluent and the aqueous wash were collected for the determination of 5-hydroxy-indolylacetic acid. Elution was continued with a further 1.2 ml quantity of 0.2 N hydrochloric acid in order to remove noradrenaline, dopamine and serotonine. Samples of 0.3 ml were used for the determinations.
Noradrenaline and dopamine were determined by the method of Shellenberger, modified as described above, whereas serotonine was determined by the method of Curzon et al. (Brit. J. Pharmacol. 39, 653 (1970)). The basic method was modified as follows: A 0.5% solution of ortho-phthal(di)aldehyde in absolute ethanol was diluted with […] hydrochloric acid to 50-fold of its original volume, and 0.6 ml of the resulting 0.01% ortho-phthal(di)aldehyde solution were added immediately to 0.5 ml of the serotonine-containing sample. The sample was placed in a hot water bath for 10 minutes, thereafter cooled with tap water, and the flourescence was recorded at wavelengths of 360 nm (excitation) and 490 nm (emission).
5-Hydroxy-indolylacetic acid was determined from the mixture of the first effluent and the aqueous wash. 10 ml of distilled water and 0.2 ml of concentrated hydrochloric acid were added to the mixture, and the sample was poured onto a 0.8×4.0 cm column filled with Sephadex G-10. The column was washed with 15 ml of 0.1 N hydrochloric acid followed by 1.8 to 2.0 ml of 0.02 N aqueous ammonia, and then 5-hydroxy-indolylacetic acid was eluted with further 2.0 ml of the aqueous ammonia. 0.5 ml samples were used in the measurements, and the determination was performed according to the method of Korf et al. (Biochem. Pharmacol. 20, 659 (1971)).
(§5) In the tests disulfiram, 2,2-dipyridyl, bis(1-methyl-4-homopiperazinyl-thiocarbonyl)-disulfide, sodium diethyldithiocarbamate and N-phenyl-N'-(2-thiazolyl)-thiourea were used as reference substances. The values indicated in Table 1 are the percentages in relation to the amine levels of the controls measured in the same tests (±standard error). The statistical calculations were performed on a TPA/i type computer, using Student's t test.

in vivo = conditions: mouse, in vivo, mice
dopamine-β-hydroxylase [4] = assay: Noradrenaline level of heart in rats, % of controls; assay type: in vivo, male Wistar rats; conditions: rat, p.o., 500 mg/kg, 4 hours
Description: as §1, §2, §3, §4, §5

[5] = 4 hours, read-out: Brain 5-HIAA level (percentages in relation to the controls)
[6] = 4 hours, read-out: Brain SE level (percentages in relation to the controls)
[7] = 8 hours, read-out: Brain 5-HIAA level (percentages in relation to the controls)
[8] = 8 hours, read-out: Brain SE level (percentages in relation to the controls)

Compound: NOCc1ccccc1 [Benzyloxyamine]
- dopamine-β-hydroxylase inhibiting effects, in words (dopamine-β-hydroxylase [1]): exert dopamine-β-hydroxylase inhibiting effects
- duration of dopamine-β-hydroxylase inhibiting effect, in words (dopamine-β-hydroxylase [1]): only active for a short period

Compound: CCN(CC)C(=S)[S-].[Na+] [DDC-Na, sodium diethyldithiocarbamate]
- Brain DA level (percentages in relation to the controls) (dopamine-β-hydroxylase [2]): 120%
- Brain NA level (percentages in relation to the controls) (dopamine-β-hydroxylase [2]): 64.1%

Compound: CN1CCCN(C(=S)SSC(=S)N2CCCN(C)CC2)CC1 [FLA-63, bis(1-methyl-4-homopiperazinyl)-thiocarbonyl-disulfide]
- dopamine-β-hydroxylase inhibition in vivo, in words (dopamine-β-hydroxylase [1]; in vivo conditions): one of the most potent dopamine-β-hydroxylase inhibitors under in vivo conditions
- response vs control in vivo at 50 mg/kg [3, 5]: 134%
- response vs control in vivo at 50 mg/kg [3, 6]: 124%
- LD50 (in vivo; ip): 150 mg/kg

Compound: CCCCc1ccc(C(=O)O)nc1 [Fusaric acid, 5-butyl-picolinic acid]
- dopamine-β-hydroxylase inhibiting effects, in words (dopamine-β-hydroxylase [1]): strong dopamine-β-hydroxylase inhibiting effects
- LD50 (in vivo; po): 230 ± 25 mg/kg

Compound: NNc1nncc2ccccc12 [Hydralazine]
- dopamine-β-hydroxylase inhibiting effects, in words (dopamine-β-hydroxylase [1]): possess dopamine-β-hydroxylase inhibiting effects
- LD50 (in vivo; ip): 83 mg/kg

Compound: NC1=C(C(=S)SSC(=S)C2=C(N)CCC2)CCC1 [M-1]
- response vs control in vivo at 200 mg/kg [3, 5]: 152%
- response vs control in vivo at 200 mg/kg [3, 6]: 115 ± 4.7%
- response vs control in vivo at 200 mg/kg [3, 7]: 125 ± 10.7%
- response vs control in vivo at 200 mg/kg [3, 8]: 111 ± 5.1%
- LD50 (in vivo; ip): ~800 mg/kg

Compound: CCCCNC1=C(C(=S)SSC(=S)C2=C(NCCCC)CCC2)CCC1 [M-2, 2-(N-butyl)-amino-cyclopent-1-ene-thiocarboxylic acid-disulfide]
- response vs control in vivo at 200 mg/kg [3, 6]: 97.6%
- response vs control in vivo at 200 mg/kg [3, 8]: 97.3 ± 11.3%

Compound: COCCNC1=C(C(=S)SSC(=S)C2=C(NCCOC)CCC2)CCC1 [M-4, 2-(N-methoxyethyl)-amino-cyclopent-1-ene-thiocarboxylic acid disulfide]
- Heart NA level (percentages in relation to the controls) (dopamine-β-hydroxylase [4]): 86.4 ± 10.1%
- response vs control in vivo at 100 mg/kg [3, 5]: 108 ± 9.6%
- response vs control in vivo at 100 mg/kg [3, 6]: 113 ± 2.8%
- response vs control in vivo at 200 mg/kg [3, 5]: 151%
- response vs control in vivo at 200 mg/kg [3, 6]: 113 ± 5.6%
- response vs control in vivo at 200 mg/kg [3, 7]: 161%
- response vs control in vivo at 200 mg/kg [3, 8]: 106 ± 7.5%
- response vs control in vivo at 500 mg/kg [3, 5]: 95.4 ± 6%
- response vs control in vivo at 500 mg/kg [3, 6]: 103 ± 5.3%
- response vs control in vivo at 500 mg/kg [3, 7]: 106 ± 4.9%
- response vs control in vivo at 500 mg/kg [3, 8]: 90.9 ± 6.7%
- LD50 (in vivo; ip): > 1500 mg/kg

Compound: S=C(SSC(=S)C1=C(NC2CCCCC2)CCC1)C1=C(NC2CCCCC2)CCC1 [M-5, 2-(N-cyclohexyl)-amino-cyclopent-1-ene-thiocarboxylic acid disulfide]
- response vs control in vivo at 200 mg/kg [3, 5]: 143 ± 8%
- response vs control in vivo at 200 mg/kg [3, 6]: 104 ± 7.6%
- response vs control in vivo at 200 mg/kg [3, 7]: 178 ± 10.8%
- response vs control in vivo at 200 mg/kg [3, 8]: 105 ± 4.5%
- LD50 (in vivo; ip): > 1000 mg/kg

Compound: CCNC1=C(C(=S)SSC(=S)C2=C(NCC)CCC2)CCC1 [M-6, 2-(N-ethyl)-amino-cyclopent-1-ene-thiocarboxylic acid-disulfide]
- response vs control in vivo at 100 mg/kg [3, 6]: 107 ± 2.2%
- response vs control in vivo at 200 mg/kg [3, 5]: 155 ± 8.5%
- response vs control in vivo at 200 mg/kg [3, 6]: 112 ± 5.2%
- response vs control in vivo at 200 mg/kg [3, 7]: 195 ± 4.8%
- response vs control in vivo at 200 mg/kg [3, 8]: 104 ± 7.4%
- response vs control in vivo at 500 mg/kg [3, 6]: 118 ± 4.6%
- response vs control in vivo at 500 mg/kg [3, 8]: 91.2 ± 0.9%
- LD50 (in vivo; ip): 1000 to 1500 mg/kg

Compound: C=CCNC1=C(C(=S)SSC(=S)C2=C(NCC=C)CCC2)CCC1 [M-7, 2-(N-allyl)-amino-cyclopent-1-ene-thiocarboxylic acid-disulfide]
- response vs control in vivo at 200 mg/kg [3, 5]: 117 ± 6.5%
- response vs control in vivo at 200 mg/kg [3, 6]: 113 ± 8%
- response vs control in vivo at 200 mg/kg [3, 7]: 126 ± 10.5%
- response vs control in vivo at 200 mg/kg [3, 8]: 108%
- LD50 (in vivo; ip): > 1000 mg/kg

Compound: O=C(CO)c1coc(=O)c2c(O)cccc12 [Oosponol]
- dopamine-β-hydroxylase inhibiting effects, in words (dopamine-β-hydroxylase [1]): strong dopamine-β-hydroxylase inhibiting effects
- LD50 (in vivo; ip): 40 mg/kg
- LD50 (in vivo; po): 280 mg/kg

Compound: CC(N)Cc1ccccc1 (stereo not shown) [amphetamine]
- dopamine-β-hydroxylase inhibiting effects, in words (dopamine-β-hydroxylase [1]): possess dopamine-β-hydroxylase inhibiting effects

Compound: NNCc1ccccc1 [benzylhydrazine]
- dopamine-β-hydroxylase inhibiting effects, in words (dopamine-β-hydroxylase [1]): exert dopamine-β-hydroxylase inhibiting effects
- duration of dopamine-β-hydroxylase inhibiting effect, in words (dopamine-β-hydroxylase [1]): only active for a short period

Compound: CCN(CC)C(=S)S [diethyl dithiocarbamate]
- dopamine-β-hydroxylase inhibiting effects, in words (dopamine-β-hydroxylase [1]): strong dopamine-β-hydroxylase inhibiting effects

Compound: Cn1cc[nH]c1=S [methimazol]
- dopamine-β-hydroxylase inhibiting effects, in words (dopamine-β-hydroxylase [1]): possess dopamine-β-hydroxylase inhibiting effects

Compound: Dopastine
- dopamine-β-hydroxylase inhibiting effects, in words (dopamine-β-hydroxylase [1]): strong dopamine-β-hydroxylase inhibiting effects
